Data set [1] relates to A375RF21. Briefly: MTS cell proliferation assay on vemurafenib-resistant A375RF21 cells. The note with it: Homo sapiens, read-out: IC50 value for proliferation inhibition. It counts as cell-based. For orientation: Tetrazolium dyes change colour on reduction, which living cells bring about.
Source text: Cell proliferation viability was investigated using MTS or SRB assay as described previously. An in vitro study of the combination of vemurafenib and the tubulin inhibitors was designed and conducted using CalcuSyn software (Biosoft, Ferguson, Mo.) with five duplicates of each set of treatment. Drug concentrations were selected based on the IC50 value of each drug tested from a pilot study.
A further data set deals with A375RF21 xenograft. Briefly: A375RF21 tumor xenograft in nude mice. It counts as in vivo. As to the method:
Seven to eight week old male nude mice were purchased from Charles River Laboratories International, Inc. (Wilmington, Mass.). A375RF21 cells were suspended in ice-cold phenol red-free and FBS-free DMEM medium without FBS and mixed with high concentration Matrigel (BD Biosciences, San Joes, Calif.) at ratio of 1:1 right before use. 100 μL of this mixture containing 3×10^6 cells were injected subcutaneously (s.c.) to the left-side dorsal flank of each mouse. One week after the inoculation, the mice were randomized into four groups (n=7 for the initial low dose and n=5 for subsequent high dose drug combination) and the treatments started. […] Vehicle control group was i.p. injected with same volume (100 μL) of PEG300 at the same dosing frequency. At the end of the experiments, mice were euthanized and tumor tissue were isolated, weighted and then fixed in 10% buffered formalin phosphate solution.
Tumor volume and body weight of each mouse were evaluated three times a week.

Data set [2] has as its system A375. The data set is described as follows: MTS cell proliferation assay on parental A375 cells. The note with it: Homo sapiens, A-375, read-out: IC50 value for proliferation inhibition. It counts as cell-based.
Procedure: Compounds were dissolved in dimethyl sulfoxide (DMSO, Sigma-Aldrich, St. Louis, Mo.) to make stock solution of 10 mM. […] All cell lines were authenticated prior to use for this study. Cells were cultured in DMEM medium (Mediatech, Inc., Manassas, Va.), supplemented by 10% fetal bovine serum (FBS, Atlanta Biologicals, Lawrenceville, Ga.), 1% antibiotic/antimycotic mixture (Sigma-Aldrich, St. Louis, Mo.) and 5 μg/mL bovine insulin (Sigma-Aldrich, St. Louis, Mo.).
Cell proliferation viability was investigated using MTS or SRB assay as described previously. […] Drug concentrations were selected based on the IC50 value of each drug tested from a pilot study.
Data set [3] deals with A375RF21. The data set is described as follows: Annexin V/propidium iodide apoptosis detection in A375RF21 cells. It counts as cell-based, human. The note with it: 48 hours incubation.
The test system of data set [4] is metastasis of melanoma to the lungs. Briefly: Melanoma lung metastasis model in mice. It counts as in vivo. The note with it: i.p. injection 5 days per week for 2 weeks (FIG. 28).
Source text: Panel A: Representative photos of lungs with melanoma nodules (black dots, n=8 per group). Treatment was i.p. injection 5 days per week for 2 weeks. Panel B: Number of melanoma nodules on each lung. […] Panel C: Mouse body weight changes during the experiment. Points: means; bars: SD. Control: vehicle solution only.
Another data set concerns OVCAR-8. The data set is described as follows: Growth inhibition, OVCAR-8. It counts as cell-based. The note with it: Homo sapiens, OVCAR-8, read-out: IC50 (nM), OVCAR-8.
Another data set deals with B16-F1 melanoma. Briefly: B16-F1 melanoma tumors in C57/BL mice. The note with it: after 13 days of treatment, C57BL/6 mice. It counts as in vivo.
In the next data set the test system is B16-F1 melanoma cells. Briefly: B16-F1 melanoma colony formation assay in soft agar. It counts as cell-based, mouse. The note with it: 14 days; tested 20, 100, 500 nM. As for the experimental part: B16-F1 melanoma cells were plated at a colony-forming density (2000 cells per well on six-well plates) on top of 0.8% base agar. Cells were grown in 0.4% agar together with DMEM medium supplemented with fetal bovine serum and an antibiotic-antimycotic solution at 37° C. in an atmosphere of 95% air and 5% CO2. […] Compounds were added to the media from 1 mM DMSO stock solutions, and a corresponding dilution of DMSO was used as control. Cells were grown for 14 days. Plates were photographed, and the number of colonies was measured by Artek 880 Automated Colony Counter (Artek Systems Corporation, Farmingdale, N.Y.).

Data set [5] concerns A375 human melanoma xenograft. The data set is described as follows: A375 human melanoma xenograft in SHO nude mice. It counts as in vivo. The note with it: 25 mg/kg; after 31 days of treatment. As for the experimental part:
FIG. 19 depicts in vivo study of ABI compounds. […] C57BL/6 mice bearing B16-F1 melanoma allograft (n=5 per group). Each mouse received 0.5×10^6 cells by s.c. injection into the flank. 30 μL i.p. daily treatments were started when tumor size reached ˜100 mm^3. […] SHO nude mice bearing an A375 human melanoma xenograft (n=5 per group). Each mouse received 2.5×10^6 cells by s.c. injection into the flank. 30 μL i.p. daily treatments were started when the tumor size reached ˜150 mm^3. Control, vehicle solution only; points, means; bars, SD. DTIC, (5-(3,3,-dimethyl-1-triazenyl)-imidazole-4-carboxamide, dacarbazine.
Average body weight of all groups increased slightly throughout the experiment period.
(In general: Xenograft models place foreign cells or tissue in a host animal.)

A further data set deals with B16-F1. Briefly: SRB cell culture cytotoxicity assay, B16-F1. It counts as cell-based, mouse. The note with it: 48 h.
In another data set the test system is WM164. The data set is described as follows: SRB cell culture cytotoxicity assay, WM-164. The note with it: 48 h. It counts as cell-based, human.
The test system of another data set is DU145/TXR. The data set is described as follows: Growth inhibition, DU145/TXR. It counts as cell-based. The note with it: RABI, Table 10A; read-out: DU145/TXR (nM), inhibitory effects.
A further data set deals with PC-3. The data set is described as follows: SRB cytotoxicity assay, PC-3. The note with it: read-out: PC3 (nM), inhibitory effects; RABI, Tables 10A/10B. In general terms: Sulforhodamine B stains cellular protein and so reports cell mass.
In the next data set the test system is PPC-1. Briefly: SRB cytotoxicity assay, PPC-1. It counts as cell-based, human. The note with it: RABI, Tables 10A/10B; read-out: PPC1 (nM), inhibitory effects.
In another data set the test system is LNCaP. Briefly: SRB cytotoxicity assay, LNCaP. It counts as cell-based, human. The note with it: Reversed aryl benzoyl imidazole (RABI), Tables 10A/10B; read-out: LNCaP (nM), inhibitory effects.
Another data set deals with MDA-MB-435. The data set is described as follows: SRB growth inhibition, MDA-MB-435 (sensitive parent melanoma line). It counts as cell-based, human. The note with it: Tables 11C, 11D; read-out: IC50 ± SEM (μm), MDA-MB-435.
Another data set deals with Du 145. The data set is described as follows: SRB cytotoxicity assay, Du 145. It counts as cell-based, human. The note with it: RABI, Tables 10A/10B; read-out: DU145 (nM), inhibitory effects.
In the next data set the test system is MDA-MB-435/LCC6MDR1. Briefly: SRB growth inhibition, multidrug-resistant MDA-MB-435/LCC6MDR1. It counts as cell-based. The note with it: Tables 11C, 11D; read-out: IC50 ± SEM (μm), MDA-MB-435/LCC6MDR1.
Data set [6] concerns A375. The data set is described as follows: SRB cell culture cytotoxicity assay, A375. It counts as cell-based, human. The note with it: Tables 11C, 11D; read-out: IC50 ± SEM (μm), A375.
A short description of data set [7]: Metabolic stability in human liver microsomes. The note with it: Table 13A; mean from duplicate studies.
For data set [8] the following is noted: ICR, Sprague-Dawley, beagle, mouse, in vivo.
Procedure: All compounds (10 mg/kg) were dissolved in DMSO/PEG300 (1/9) and administered by a single intravenously (i.v.) injection (50 μL) into the tail vein.
A further data set is described as follows: in vivo. The note with it: nude, mouse, 20 mg/kg.
[9] abbreviates: vemurafenib 30 mg/kg, 12da 15 mg/kg, n=5.

Several values for one entry are separate records, joined by “and”; a condition that tells them apart may be missing. Equal values may be shown once.

On to `COc1cc(C(=O)c2c[nH]c(-c3ccc(C)cc3)n2)cc(OC)c1OC` [12da, (2-(p-tolyl)-1H-imidazol-4-yl)(3,4,5-trimethoxyphenyl)methanone], for which the IC50 with A375RF21 [1] was 13.6 ± 4.4 nM; in the data set on A375 [2], 10.7 ± 1.5 nM. Further, the “TGI (%)” value in the data set with A375RF21 xenograft (12da 10 mg/kg, vemurafenib 20 mg/kg, i.p. once per day 5 days per week, after 3 weeks of treatment, n=7) is 38.12% and 38.12 ± 6.14%; with A375RF21 xenograft (setting [9]), 72.72% and 72.72 ± 8.29%. The “Tumor weight (gram)” value in the data set with A375RF21 xenograft (12da 10 mg/kg, vemurafenib 20 mg/kg, after 3 weeks of treatment, n=7) stood at 1.77 ± 0.11 gram; in the data set with A375RF21 xenograft (setting [9]) it was 0.51 ± 0.12 gram. Moreover, the “counted cell apoptosis or death (percentage sum of Q1, Q2 and Q4)” value with A375RF21 [3] amounted to 11.8±3.0%. In addition, in data set [4], the “metastasis of melanoma to the lungs” value is given as “inhibition”.
As to `O=C(c1ccc(F)cc1)c1c[nH]c(-c2ccc(Cl)cc2)n1` [12fb, (2-(4-chlorophenyl)-1H-imidazol-4-yl)(4-fluorophenyl)methanone], the IC50 in the data set on OVCAR-8 was determined as 47 nM. For the same compound, the entries for the “melanoma tumor growth inhibition (TGI value)” value (with B16-F1 melanoma (15 mg/kg); in the data set with B16-F1 melanoma (45 mg/kg); in data set [5]) were 32%, 82% and 69%, respectively. In [4], the “metastasis of melanoma to the lungs” value is recorded as “inhibition”. Further, the “concentration showing effective inhibition of B16-F1 colony formation” value in the data set on B16-F1 melanoma cells was 100 nM.
For the compound `COc1cc(C(=O)c2c[nH]c(-c3ccc(O)cc3)n2)cc(O)c1OC` [12kc], the values for the IC50 in the data set with B16-F1 and with WM164 were 5600 nM and 6400 nM, respectively.
For the compound `COc1cc(C(=O)c2nc(-c3ccc(Cl)cc3)c[nH]2)cc(OC)c1OC` [70c], the IC50 in the data set on DU145/TXR was found to be 121 nM.
For the compound `COc1cc(-c2c[nH]c(C(=O)c3ccccc3)n2)cc(OC)c1OC` [70x], the IC50 with PC-3 came out at 632 nM; in the data set on PPC-1, 408 nM; in the data set with LNCaP it was 195 nM; with MDA-MB-435, 4600 nM; in the data set on Du 145 it was 1300 nM; with MDA-MB-435/LCC6MDR1, 5770 nM.
On to `COc1cc(Cc2nc(-c3ccccc3)c[nH]2)cc(OC)c1OC` [102a], for which, in the data set with A375 [6], the IC50 was determined as 10200 ± 392 nM.
As to `COc1cc(C(=O)c2csc(Nc3ccc4[nH]ccc4c3)n2)cc(OC)c1OC` [compound 55], the “half-life in human liver microsomes” value in [7] is 28 min. Further, in data set [8], the “oral bioavailability rates among three species” value is listed as 24-36%. Further, the Kp in the data set “in vivo” was found to be 3.2.

These data come from patent US10022356B2, “Compounds for treatment of cancer” (UNIVERSITY OF TENNESSEE RESEARCH FOUNDATION, priority 2013, dated 2018).
